Assay results taken from patent US20110039721A1, “METHOD FOR PREDICTION ABOUT CARCINOGENICITY OF SUBSTANCE IN RODENT” (Chemicals Evaluation and Research Institute, priority 2007, published 2011).

What was measured:
[1] = tested on: mRNA expressed from the genes (A) to (D) in rat liver; experiment: Behavior of genes (mRNA expression level, oligo-DNA microarray) in rat liver after 28-day oral administration; type: in vivo; conditions: mRNA vs vehicle control group
In short: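 Male F344 SPF rats, 5 weeks old, four per group, dosed by oral gavage once daily for 28 days with test chemical or matched-volume solvent. Liver total RNA profiled on oligo-DNA microarray. Change ≥1.5-fold or ≤1/1.5 versus vehicle counted as significant if its direction matched that seen with other carcinogens.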

liver = conditions: in vivo; cited from earlier work
rodent = conditions: in vivo; cited from earlier work
[2] = gene group (A), Unigene No. Rn.167075
[3] = gene group (C), Unigene No. Rn.120914

SMILES: c1ccc2cc3c(ccc4ccccc43)cc2c1 [TS046, Benz[a]anthracene]
- Behavior of gene caused by administration of chemical substance, Gene No. 4846 ([1]; gene group (A), Unigene No. Rn.144554): −
- Behavior of gene caused by administration of chemical substance, Gene No. 2026 [1, 2]: +
- Behavior of gene caused by administration of chemical substance, Gene No. 4218 [1, 2]: −
- Behavior of gene caused by administration of chemical substance, Gene No. 6182 ([1]; gene group (A), Unigene No. Rn.5834): +
- Behavior of gene caused by administration of chemical substance, Gene No. 5600 ([1]; gene group (A), Unigene No. Rn.9836): −
- Behavior of gene caused by administration of chemical substance, Gene No. 1494 ([1]; gene group (B), Unigene No. Rn.1430): −
- Behavior of gene caused by administration of chemical substance, Gene No. 2045 ([1]; gene group (B), Unigene No. Rn.19329): −
- Behavior of gene caused by administration of chemical substance, Gene No. 2203 ([1]; gene group (B), Unigene No. Rn.21240): +
- Behavior of gene caused by administration of chemical substance, Gene No. 533 ([1]; gene group (C), Unigene No. Rn.106184): −
- Behavior of gene caused by administration of chemical substance, Gene No. 725 ([1]; gene group (C), Unigene No. Rn.108075): +
- Behavior of gene caused by administration of chemical substance, Gene No. 1163 ([1]; gene group (C), Unigene No. Rn.11766): +
- Behavior of gene caused by administration of chemical substance, Gene No. 4973 ([1]; gene group (C), Unigene No. Rn.118529): +
- Behavior of gene caused by administration of chemical substance, Gene No. 4095 ([1]; gene group (C), Unigene No. Rn.119024): +
- Behavior of gene caused by administration of chemical substance, Gene No. 1334 [1, 3]: −
- Behavior of gene caused by administration of chemical substance, Gene No. 6620 [1, 3]: −
- Behavior of gene caused by administration of chemical substance, Gene No. 6303 ([1]; gene group (C), Unigene No. Rn.123063): −
- Behavior of gene caused by administration of chemical substance, Gene No. 5878 ([1]; gene group (C), Unigene No. Rn.143213): +
- Behavior of gene caused by administration of chemical substance, Gene No. 1131 ([1]; gene group (C), Unigene No. Rn.144946): +
- Behavior of gene caused by administration of chemical substance, Gene No. 1562 ([1]; gene group (C), Unigene No. Rn.14744): −
- Behavior of gene caused by administration of chemical substance, Gene No. 1741 ([1]; gene group (C), Unigene No. Rn.1647): +
- Behavior of gene caused by administration of chemical substance, Gene No. 893 ([1]; gene group (C), Unigene No. Rn.164817): +
- Behavior of gene caused by administration of chemical substance, Gene No. 6026 ([1]; gene group (C), Unigene No. Rn.167685): −
- Behavior of gene caused by administration of chemical substance, Gene No. 154 ([1]; gene group (C), Unigene No. Rn.185941): +
- Behavior of gene caused by administration of chemical substance, Gene No. 1993 ([1]; gene group (C), Unigene No. Rn.18728): +
- Behavior of gene caused by administration of chemical substance, Gene No. 813 ([1]; gene group (C), Unigene No. Rn.201760): +
- Behavior of gene caused by administration of chemical substance, Gene No. 2494 ([1]; gene group (C), Unigene No. Rn.23969): −
- Behavior of gene caused by administration of chemical substance, Gene No. 2546 ([1]; gene group (C), Unigene No. Rn.24561): +
- Behavior of gene caused by administration of chemical substance, Gene No. 3776 ([1]; gene group (C), Unigene No. Rn.43232): +
- Behavior of gene caused by administration of chemical substance, Gene No. 3929 ([1]; gene group (C), Unigene No. Rn.4620): −
- Behavior of gene caused by administration of chemical substance, Gene No. 1119 ([1]; gene group (C), Unigene No. Rn.9757): +
- Behavior of gene caused by administration of chemical substance, Gene No. 6742 ([1]; gene group (C), Unigene No. Rn.9779): +
- Behavior of gene caused by administration of chemical substance, Gene No. 5634 ([1]; gene group (C), Unigene No. Rn.9862): +
- Behavior of gene caused by administration of chemical substance, Gene No. 5726 ([1]; gene group (D), Unigene No. Rn.9939): +
- Liver carcinogenicity (liver): Cr−
- Carcinogenicity (rodent): C+
